The results in this text go back to patent publication US20170305922A1, “CARM1 INHIBITORS AND USES THEREOF” (Epizyme, Inc., priority 2014, published 2017).

One assay has as its target T1, Human CARM1 (PRMT4) (Homo sapiens, UniProt Q86X55).
T1 construct: Flag-CARM1-His was eluted with 200 ug/ml FLAG peptide in buffer A; made in house; host or cells: HEK 293F cells infected with recombinant baculovirus (pFastBacMam)
T1 sequence (Q86X55 1-585 isoform Q86X55-1): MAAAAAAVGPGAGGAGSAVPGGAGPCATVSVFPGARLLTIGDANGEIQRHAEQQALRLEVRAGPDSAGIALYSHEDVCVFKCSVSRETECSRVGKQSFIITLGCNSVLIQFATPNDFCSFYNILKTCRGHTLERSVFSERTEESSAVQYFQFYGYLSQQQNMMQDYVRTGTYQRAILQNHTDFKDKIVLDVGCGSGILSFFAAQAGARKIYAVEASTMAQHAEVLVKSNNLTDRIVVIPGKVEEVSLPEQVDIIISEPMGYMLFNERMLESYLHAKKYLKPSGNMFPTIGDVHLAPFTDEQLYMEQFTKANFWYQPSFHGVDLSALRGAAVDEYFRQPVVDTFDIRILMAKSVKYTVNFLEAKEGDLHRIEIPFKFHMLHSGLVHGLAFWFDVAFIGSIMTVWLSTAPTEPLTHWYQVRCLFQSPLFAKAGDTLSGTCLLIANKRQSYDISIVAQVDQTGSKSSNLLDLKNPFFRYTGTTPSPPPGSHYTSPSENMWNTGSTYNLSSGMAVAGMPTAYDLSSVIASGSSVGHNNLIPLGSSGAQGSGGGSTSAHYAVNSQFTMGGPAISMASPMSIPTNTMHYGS
Nature of the assay: CARM1 enzyme assay on peptide substrates (3H-SAM Flashplate). The note with it: Biochemical assay; CARM1 0.25 nM, 3H-SAM 30 nM, peptide 250 nM; read-out: Biochem IC50.

Assay [1] has as its system asymmetric di-methyl PABP1 in RKO cells. In words: RKO methylation assay: In Cell Western (ICW) for asymmetric di-methyl PABP1 (PABP1me2a). The note with it: Homo sapiens, RKO, 48 h, Cellular-based (PABP1me2a) ICW (In Cell Western) assay. In a few lines: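 In-cell western on compound-exposed RKO cells (48 hours): asymmetric di-methyl PABP1 detected by antibody at 800 nm, DNA content by DRAQ5 at 700 nm. Percent inhibition from signal ratios against DMSO (minimum) and 20 μM reference compound (maximum) wells; IC50 curves fitted from triplicates.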

What is called IC50 is the concentration needed to halve the response being measured. On to `CNC[C@@H](O)COc1ccc(Cl)c(-c2nc(-c3c(C)noc3C)c(C)c(N3Cc4cnc(N5CC(F)C5)nc4C3)n2)c1` [Example 145], for which the IC50 at Human CARM1 (PRMT4) was 2 nM; in assay [1] it was 15 nM.

For `CNC[C@@H](O)COc1ccc(Cl)c(-c2nc(-c3c(C)c(Cl)nn3C)c(C)c(N3Cc4cnc(N5CC(F)(F)C5)nc4C3)n2)c1` [Example 146], the IC50 on Human CARM1 (PRMT4) worked out at 2.7 nM; in assay [1], 26 nM.

On to `CNC[C@@H](O)COc1ccc(Cl)c(-c2nc(-c3c(C)noc3C)c(C)c(N3Cc4cnc(N5CC(OC)C5)nc4C3)n2)c1` [Example 147], for which the IC50 amounted to 2.8 nM at Human CARM1 (PRMT4) and 16 nM in assay [1].

For `CNC[C@@H](O)COc1ccc(Cl)c(-c2nc(-c3c(C)noc3C)c(C)c(N3Cc4nc(C)oc4C3)n2)c1` [Example 149], the half-maximal inhibitory concentration (IC50) was 3.1 nM at Human CARM1 (PRMT4) and 52 nM in assay [1].

Turning to `CNC[C@@H](O)COc1ccc(Cl)c(-c2nc(-c3c(C)noc3C)c(C)c(N3Cc4cccnc4C3)n2)c1Cl` [Example 150], the IC50 was determined as 16.2 nM at Human CARM1 (PRMT4) and 2020 nM in assay [1].

On to `CNC[C@@H](O)COc1ccc(Cl)c(-c2nc(-c3c(C)noc3C)c(C)c(N3C[C@H]4C[C@@H]3CN4CC(F)(F)F)n2)c1` [Example 151], for which the IC50 on Human CARM1 (PRMT4) was 12.1 nM; in assay [1], 668 nM.

For `CNC[C@@H](O)COc1ccc(Cl)c(-c2nc(-c3c(C)c(Cl)nn3C)c(C)c(N3Cc4cnc(OC)nc4C3)n2)c1` [Example 152], the figures for the IC50 (on Human CARM1 (PRMT4); in assay [1]) were 1.9 nM and 18 nM, respectively.

On to `CNC[C@@H](O)COc1ccc(Cl)c(-c2nc(-c3c(C)c(Cl)nn3C)c(C)c(N3Cc4cnc(N5CCC5)nc4C3)n2)c1` [Example 153], for which the IC50 at Human CARM1 (PRMT4) stood at 1.9 nM; in assay [1] it was 15 nM.

For the compound `CNC[C@@H](O)COc1ccc(Cl)c(-c2nc(-c3c(C)noc3C)c(C)c(N3Cc4ncnc(OCC(F)F)c4C3)n2)c1` [Example 154], the IC50 on Human CARM1 (PRMT4) worked out at 3.1 nM; in assay [1], 57 nM.

For the compound `CCOc1ncc2c(n1)CN(c1nc(-c3cc(OC[C@H](O)CNC)ccc3Cl)nc(-c3c(C)c(Cl)nn3C)c1C)C2` [Example 155], the IC50 was found to be 2.4 nM on Human CARM1 (PRMT4) and 18 nM in assay [1].

In the case of `CNC[C@@H](O)COc1ccc(Cl)c(-c2nc(-c3c(C)c(Cl)nn3C)c(C)c(N3Cc4cnc(OCC(F)F)nc4C3)n2)c1` [Example 156], the half-maximal inhibitory concentration (IC50) at Human CARM1 (PRMT4) was 3.5 nM; in assay [1], 31 nM.

For the compound `CCN(C)c1ncc2c(n1)CN(c1nc(-c3cc(OC[C@H](O)CNC)ccc3Cl)nc(-c3c(C)noc3C)c1C)C2` [Example 157], the results for the 50% inhibitory concentration (IC50) (on Human CARM1 (PRMT4); in assay [1]) were 2.4 nM and 26 nM, respectively.

On to `CNC[C@@H](O)COc1ccc(Cl)c(-c2nc(-c3c(C)noc3C)c(C)c(N3Cc4cnc(N(C)C)nc4C3)n2)c1` [Example 158], for which the IC50 on Human CARM1 (PRMT4) was 2.9 nM; in assay [1] it was 18 nM.

`CCN(C)c1ncc2c(n1)CN(c1nc(-c3cc(OC[C@H](O)CNC)ccc3Cl)nc(-c3c(C)c(Cl)nn3C)c1C)C2` [Example 159]: the IC50 worked out at 2 nM on Human CARM1 (PRMT4) and 39 nM in assay [1].

In the case of `CNC[C@@H](O)COc1ccc(Cl)c(-c2nc(-c3c(C)noc3C)c(C)c(N3CC4(CC(C(=O)N5CC(OC)C5)C4)C3)n2)c1` [Example 162], the IC50 at Human CARM1 (PRMT4) is 6.9 nM; in assay [1] it was 550 nM.

As to `CNC[C@@H](O)COc1ccc(Cl)c(-c2nc(-c3c(C)noc3C)c(C)c(N3CC4(CC(C(=O)N5CCC5)C4)C3)n2)c1` [Example 163], the IC50 on Human CARM1 (PRMT4) was 6.2 nM; in assay [1], 292 nM.

On to `CNC[C@@H](O)COc1ccc(Cl)c(-c2nc(-c3c(C)noc3C)c(C)c(N3Cc4nccc(C)c4C3)n2)c1` [Example 164], for which the half-inhibitory concentration (IC50) at Human CARM1 (PRMT4) amounted to 2.2 nM; in assay [1], 55 nM.

Consider `CNC[C@@H](O)COc1ccc(Cl)c(-c2nc(-c3c(C)noc3C)c(C)c(N3CC4(CCC(C(=O)N5CCOCC5)CC4)C3)n2)c1` [Example 165], for which the IC50 on Human CARM1 (PRMT4) was determined as 5.8 nM; in assay [1], 322 nM.

In the case of `CNC[C@@H](O)COc1ccc(Cl)c(-c2nc(-c3c(C)noc3C)c(C)c(N3Cc4cnc(OC5CCOCC5)nc4C3)n2)c1` [Example 166], the IC50 at Human CARM1 (PRMT4) turned out to be 5.1 nM; in assay [1], 49 nM.

Consider `CNC[C@@H](O)COc1ccc(Cl)c(-c2nc(-c3c(C)noc3C)c(C)c(N3Cc4cnc(N5CCC5C)nc4C3)n2)c1` (some centres unmarked) [Example 167], for which the IC50 at Human CARM1 (PRMT4) turned out to be 1.9 nM; in assay [1] it was 19 nM.

Regarding `CNC[C@@H](O)COc1ccc(Cl)c(-c2nc(-c3c(C)c(Cl)nn3C)c(C)c(N3Cc4cnc(N(C)C)nc4C3)n2)c1` [Example 168], the IC50 came to 2.5 nM on Human CARM1 (PRMT4) and 26 nM in assay [1].

On to `CNC[C@@H](O)COc1ccc(Cl)c(-c2nc(-c3c(C)noc3C)c(C)c(N3Cc4cnc(OC)cc4C3)n2)c1` [Example 169], for which the results for the IC50 (on Human CARM1 (PRMT4); in assay [1]) were 2.1 nM and 34 nM, respectively.

Turning to `CNC[C@@H](O)COc1ccc(Cl)c(-c2nc(-c3c(C)noc3C)c(C)c(N3Cc4ccc(OC)nc4C3)n2)c1` [Example 170], the values for the IC50 (at Human CARM1 (PRMT4); in assay [1]) were 1.9 nM and 38 nM, respectively.

Consider `CCc1onc(C)c1-c1nc(-c2cc(OC[C@H](O)CNC)ccc2Cl)nc(N2CC3(CC(OC)C3)C2)c1C` [Example 171], for which the IC50 amounted to 5.8 nM on Human CARM1 (PRMT4) and 174 nM in assay [1].

Consider `CNC[C@@H](O)COc1ccc(Cl)c(-c2nc(-c3c(C)noc3C)c(C)c(N3CC4(CCC(OCC(F)F)CC4)C3)n2)c1` [Example 172], for which the IC50 amounted to 4.7 nM at Human CARM1 (PRMT4) and 57 nM in assay [1].

For `CNC[C@@H](O)COc1ccc(Cl)c(-c2nc(-c3c(C)noc3C)c(C)c(N3CC4(CCC(C(=O)N5CC(OC)C5)CC4)C3)n2)c1` [Example 173], the IC50 on Human CARM1 (PRMT4) is 5 nM; in assay [1], 408 nM.

Take `CNC[C@@H](O)COc1ccc(Cl)c(-c2nc(-c3c(C)noc3C)c(C)c(N3CC4(CCC(C(=O)N5CCC5)CC4)C3)n2)c1` [Example 174]: the IC50 on Human CARM1 (PRMT4) came to 3.9 nM; in assay [1], 271 nM.

Turning to `CCc1onc(C)c1-c1nc(-c2cc(OC[C@H](O)CNC)ccc2Cl)nc(N2Cc3cnc(N4CCC4)nc3C2)c1C` [Example 175], the IC50 at Human CARM1 (PRMT4) amounted to 1.7 nM; in assay [1], 13 nM.

On to `CCOC(=O)N1CC2=C(C1)CN(c1nc(-c3cc(OC[C@H](O)CNC)ccc3Cl)nc(-c3c(C)noc3C)c1C)C2` [Example 176], for which the half-maximal inhibitory concentration (IC50) on Human CARM1 (PRMT4) is 2.7 nM; in assay [1], 26 nM.

On to `CNC[C@@H](O)COc1ccc(Cl)c(-c2nc(-c3c(C)noc3C)c(C)c(N3CC4=C(CN(C(=O)N(C)C)C4)C3)n2)c1` [Example 177], for which the IC50 on Human CARM1 (PRMT4) was found to be 3.6 nM; in assay [1] it was 87 nM.

For `CNC[C@@H](O)COc1ccc(Cl)c(-c2nc(-c3c(C)c(Cl)nn3C)c(C)c(N3Cc4cnc(OCCOC)nc4C3)n2)c1` [Example 178], the figures for the IC50 (at Human CARM1 (PRMT4); in assay [1]) were 1.4 nM and 24 nM, respectively.

As for `CCc1onc(C)c1-c1nc(-c2cc(OC[C@H](O)CNC)ccc2Cl)nc(N2CC3(CCN(C(=O)OC)CC3)C2)c1C` [Example 179], the figures for the IC50 (at Human CARM1 (PRMT4); in assay [1]) were 5.1 nM and 119 nM, respectively.

In the case of `CNC[C@@H](O)COc1ccc(Cl)c(-c2nc(-c3c(C)noc3C)c(C)c(N3CC4(CCN(C(=O)OCC(F)F)C4)C3)n2)c1` [Example 180], the IC50 on Human CARM1 (PRMT4) was 4.1 nM; in assay [1] it was 121 nM.

On to `CNC[C@@H](O)COc1ccc(Cl)c(-c2nc(-c3c(C)noc3C)c(C)c(N3Cc4cnc(N5CCOC5=O)nc4C3)n2)c1` [Example 181], for which the IC50 was determined as 1.8 nM at Human CARM1 (PRMT4) and 459 nM in assay [1].
